Legend:
Experiment in all cases: PRESTO-Tango GPCR screen
Format in all cases: cell-based
Conditions in all cases: 100 µM
S1PR2 = biological target: T1, S1PR2 (Homo sapiens, UniProt O95136)
T1 construct: purchased PRESTO-Tango GPCR kit (Roth lab / Addgene)
In short: (§1)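 Receptor activation is detected through β-arrestin-TEV cleavage releasing tTA, which drives luciferase in HTLA cells. Transfected cells receive compound (100 μM final) in DMEM with 10 mM HEPES for 20 h; Bright-Glo luminescence is divided by the PBS-control signal.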

GPR6 = biological target: T2, GPR6 (Homo sapiens, UniProt P46095)
T2 construct: purchased PRESTO-Tango GPCR kit (Roth lab / Addgene)
In short: as §1

HTR1A = biological target: T3, HTR1A (Homo sapiens, UniProt P08908)
T3 construct: purchased PRESTO-Tango GPCR kit (Roth lab / Addgene)
In short: as §1

GPR124 = biological target: T4, GPR124 (Homo sapiens, UniProt Q96PE1)
T4 construct: purchased PRESTO-Tango GPCR kit (Roth lab / Addgene)
In short: as §1

CCKBR = biological target: T5, CCKBR (Homo sapiens, UniProt P32239)
T5 construct: purchased PRESTO-Tango GPCR kit (Roth lab / Addgene)
In short: as §1

CCR2 = biological target: T6, CCR2 (Homo sapiens, UniProt P41597)
T6 construct: purchased PRESTO-Tango GPCR kit (Roth lab / Addgene)
T6 sequence (P41597 whole entry): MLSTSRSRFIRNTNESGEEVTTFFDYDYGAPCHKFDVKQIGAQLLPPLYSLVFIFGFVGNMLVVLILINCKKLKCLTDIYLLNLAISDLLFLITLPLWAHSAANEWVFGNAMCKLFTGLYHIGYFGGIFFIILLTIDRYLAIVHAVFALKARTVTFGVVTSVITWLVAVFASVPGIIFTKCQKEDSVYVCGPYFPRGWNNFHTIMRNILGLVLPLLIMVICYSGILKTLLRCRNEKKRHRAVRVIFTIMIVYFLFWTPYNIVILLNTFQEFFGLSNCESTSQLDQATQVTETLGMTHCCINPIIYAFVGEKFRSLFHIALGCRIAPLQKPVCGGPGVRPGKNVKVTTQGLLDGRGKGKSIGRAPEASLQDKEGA
In short: as §1

P2RY1 = biological target: T7, P2RY1 (Homo sapiens, UniProt P47900)
T7 construct: purchased PRESTO-Tango GPCR kit (Roth lab / Addgene)
In short: as §1

GPR114 = biological target: T8, GPR114 (Homo sapiens, UniProt Q8IZF4)
T8 construct: purchased PRESTO-Tango GPCR kit (Roth lab / Addgene)
In short: as §1

NTSR1 = biological target: T9, NTSR1 (Homo sapiens, UniProt P30989)
T9 construct: purchased PRESTO-Tango GPCR kit (Roth lab / Addgene)
In short: as §1

LPAR1 = biological target: T10, LPAR1 (Homo sapiens, UniProt Q92633)
T10 construct: purchased PRESTO-Tango GPCR kit (Roth lab / Addgene)
In short: as §1

TAAR6 = biological target: T11, TAAR6 (Homo sapiens, UniProt Q96RI8)
T11 construct: purchased PRESTO-Tango GPCR kit (Roth lab / Addgene)
T11 sequence (Q96RI8 whole entry): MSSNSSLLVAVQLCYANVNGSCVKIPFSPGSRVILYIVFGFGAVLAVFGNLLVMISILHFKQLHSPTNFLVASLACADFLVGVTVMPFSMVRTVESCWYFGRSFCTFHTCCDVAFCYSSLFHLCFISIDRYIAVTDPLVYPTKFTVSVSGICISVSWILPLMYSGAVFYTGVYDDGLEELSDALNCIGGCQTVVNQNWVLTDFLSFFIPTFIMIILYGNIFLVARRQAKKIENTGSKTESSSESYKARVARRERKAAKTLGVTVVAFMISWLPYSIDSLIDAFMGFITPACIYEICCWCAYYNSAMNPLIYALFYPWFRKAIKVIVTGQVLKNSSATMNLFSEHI
In short: as §1

CXCR6 = biological target: T12, CXCR6 (Homo sapiens, UniProt O00574)
T12 construct: purchased PRESTO-Tango GPCR kit (Roth lab / Addgene)
In short: as §1

GNRHR = biological target: T13, GNRHR (Homo sapiens, UniProt P30968)
T13 construct: purchased PRESTO-Tango GPCR kit (Roth lab / Addgene)
T13 sequence (P30968 whole entry): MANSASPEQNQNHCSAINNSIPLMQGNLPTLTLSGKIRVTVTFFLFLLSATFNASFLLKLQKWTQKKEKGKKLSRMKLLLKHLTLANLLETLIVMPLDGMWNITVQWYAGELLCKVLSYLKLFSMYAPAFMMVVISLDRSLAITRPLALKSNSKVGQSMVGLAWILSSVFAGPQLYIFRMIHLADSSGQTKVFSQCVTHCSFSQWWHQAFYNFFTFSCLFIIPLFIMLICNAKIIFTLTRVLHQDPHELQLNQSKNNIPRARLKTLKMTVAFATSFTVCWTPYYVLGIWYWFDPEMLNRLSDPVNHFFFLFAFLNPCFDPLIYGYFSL
In short: as §1

GPR44 = biological target: T14, GPR44 (Homo sapiens, UniProt Q9Y5Y4)
T14 construct: purchased PRESTO-Tango GPCR kit (Roth lab / Addgene)
T14 sequence (Q9Y5Y4 whole entry): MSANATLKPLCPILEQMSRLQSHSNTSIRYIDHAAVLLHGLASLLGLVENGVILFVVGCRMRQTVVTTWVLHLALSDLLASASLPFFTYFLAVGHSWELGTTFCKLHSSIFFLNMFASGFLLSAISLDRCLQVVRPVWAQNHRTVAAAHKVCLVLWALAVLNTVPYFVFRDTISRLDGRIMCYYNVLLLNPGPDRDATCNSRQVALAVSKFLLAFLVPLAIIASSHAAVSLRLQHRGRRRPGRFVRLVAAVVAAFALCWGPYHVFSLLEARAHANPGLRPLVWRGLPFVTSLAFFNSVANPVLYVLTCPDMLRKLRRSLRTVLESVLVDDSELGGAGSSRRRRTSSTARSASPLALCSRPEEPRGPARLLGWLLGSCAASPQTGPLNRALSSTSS
In short: as §1

MLNR = biological target: T15, MLNR (Homo sapiens, UniProt O43193)
T15 construct: purchased PRESTO-Tango GPCR kit (Roth lab / Addgene)
In short: as §1

SSTR2 = biological target: T16, SSTR2 (Homo sapiens, UniProt P30874)
T16 construct: purchased PRESTO-Tango GPCR kit (Roth lab / Addgene)
In short: as §1

CALCRL = biological target: T17, CALCRL (Homo sapiens, UniProt Q16602)
T17 construct: purchased PRESTO-Tango GPCR kit (Roth lab / Addgene)
In short: as §1

GPR87 = biological target: T18, GPR87 (Homo sapiens, UniProt Q9BY21)
T18 construct: purchased PRESTO-Tango GPCR kit (Roth lab / Addgene)
T18 sequence (Q9BY21 whole entry): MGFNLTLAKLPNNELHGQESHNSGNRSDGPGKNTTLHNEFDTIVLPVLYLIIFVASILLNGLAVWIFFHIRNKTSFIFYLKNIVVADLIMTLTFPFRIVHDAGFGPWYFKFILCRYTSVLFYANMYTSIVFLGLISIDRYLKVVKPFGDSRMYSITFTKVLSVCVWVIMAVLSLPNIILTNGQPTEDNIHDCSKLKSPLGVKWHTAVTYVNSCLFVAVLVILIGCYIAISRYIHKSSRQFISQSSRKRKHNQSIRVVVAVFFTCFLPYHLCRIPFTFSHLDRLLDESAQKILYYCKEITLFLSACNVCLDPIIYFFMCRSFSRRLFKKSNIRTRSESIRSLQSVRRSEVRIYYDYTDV
In short: as §1

GABBR1 = biological target: T19, GABBR1 (Homo sapiens, UniProt Q9UBS5)
T19 construct: purchased PRESTO-Tango GPCR kit (Roth lab / Addgene)
In short: as §1

SSTR1 = biological target: T20, SSTR1 (Homo sapiens, UniProt P30872)
T20 construct: purchased PRESTO-Tango GPCR kit (Roth lab / Addgene)
In short: as §1

ADRA2A = biological target: T21, ADRA2A (Homo sapiens, UniProt P08913)
T21 construct: purchased PRESTO-Tango GPCR kit (Roth lab / Addgene)
T21 sequence (P08913 whole entry): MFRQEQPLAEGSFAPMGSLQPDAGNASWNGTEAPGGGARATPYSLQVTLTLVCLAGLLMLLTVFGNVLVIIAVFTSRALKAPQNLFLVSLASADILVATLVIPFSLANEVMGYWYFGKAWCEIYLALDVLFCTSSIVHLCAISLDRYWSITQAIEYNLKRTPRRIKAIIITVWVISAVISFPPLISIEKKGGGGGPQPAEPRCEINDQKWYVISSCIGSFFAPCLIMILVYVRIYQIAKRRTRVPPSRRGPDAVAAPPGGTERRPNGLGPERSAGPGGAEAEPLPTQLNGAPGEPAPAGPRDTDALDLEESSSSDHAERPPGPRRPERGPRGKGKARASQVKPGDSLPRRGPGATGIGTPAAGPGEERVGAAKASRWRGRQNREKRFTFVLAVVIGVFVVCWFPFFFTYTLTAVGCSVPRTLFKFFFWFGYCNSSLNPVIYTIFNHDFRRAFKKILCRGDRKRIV
In short: as §1

PRRP = biological target: T22, PRRP (Homo sapiens, UniProt P49683)
T22 construct: purchased PRESTO-Tango GPCR kit (Roth lab / Addgene)
In short: as §1

GPR123 = biological target: T23, GPR123 (Homo sapiens, UniProt Q86SQ6)
T23 construct: purchased PRESTO-Tango GPCR kit (Roth lab / Addgene)
In short: as §1

GPR62 = biological target: T24, GPR62 (Homo sapiens, UniProt Q9BZJ7)
T24 construct: purchased PRESTO-Tango GPCR kit (Roth lab / Addgene)
In short: as §1

DRD1 = biological target: T25, DRD1 (Homo sapiens, UniProt P21728)
T25 construct: purchased PRESTO-Tango GPCR kit (Roth lab / Addgene)
In short: as §1

GRM8 = biological target: T26, GRM8 (Homo sapiens, UniProt O00222)
T26 construct: purchased PRESTO-Tango GPCR kit (Roth lab / Addgene)
In short: as §1

CHRM2 = biological target: T27, CHRM2 (Homo sapiens, UniProt P08172)
T27 construct: purchased PRESTO-Tango GPCR kit (Roth lab / Addgene)
In short: as §1

LPAR5 = biological target: T28, LPAR5 (Homo sapiens, UniProt Q9H1C0)
T28 construct: purchased PRESTO-Tango GPCR kit (Roth lab / Addgene)
T28 sequence (Q9H1C0 whole entry): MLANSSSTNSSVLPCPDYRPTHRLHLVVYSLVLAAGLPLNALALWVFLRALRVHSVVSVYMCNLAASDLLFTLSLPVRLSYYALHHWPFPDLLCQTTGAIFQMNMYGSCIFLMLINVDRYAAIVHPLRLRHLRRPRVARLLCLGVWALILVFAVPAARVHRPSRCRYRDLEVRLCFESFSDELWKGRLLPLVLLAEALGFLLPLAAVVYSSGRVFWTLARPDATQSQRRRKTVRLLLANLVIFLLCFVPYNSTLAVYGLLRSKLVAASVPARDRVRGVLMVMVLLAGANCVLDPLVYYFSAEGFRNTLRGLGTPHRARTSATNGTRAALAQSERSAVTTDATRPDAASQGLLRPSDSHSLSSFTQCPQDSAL
In short: as §1

GPR146 = biological target: T29, GPR146 (Homo sapiens, UniProt Q96CH1)
T29 construct: purchased PRESTO-Tango GPCR kit (Roth lab / Addgene)
T29 sequence (Q96CH1 whole entry): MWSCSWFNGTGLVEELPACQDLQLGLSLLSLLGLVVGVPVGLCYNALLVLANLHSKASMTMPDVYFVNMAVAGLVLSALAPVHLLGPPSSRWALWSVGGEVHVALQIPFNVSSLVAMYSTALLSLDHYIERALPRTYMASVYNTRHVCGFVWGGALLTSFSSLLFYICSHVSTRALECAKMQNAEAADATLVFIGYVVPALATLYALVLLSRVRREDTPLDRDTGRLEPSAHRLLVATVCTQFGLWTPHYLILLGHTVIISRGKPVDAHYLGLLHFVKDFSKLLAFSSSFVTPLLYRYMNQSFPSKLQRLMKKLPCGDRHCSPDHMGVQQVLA
In short: as §1

MC1R = biological target: T30, MC1R (Homo sapiens, UniProt Q01726)
T30 construct: purchased PRESTO-Tango GPCR kit (Roth lab / Addgene)
In short: as §1

MC5R = biological target: T31, MC5R (Homo sapiens, UniProt P33032)
T31 construct: purchased PRESTO-Tango GPCR kit (Roth lab / Addgene)
T31 sequence (P33032 whole entry): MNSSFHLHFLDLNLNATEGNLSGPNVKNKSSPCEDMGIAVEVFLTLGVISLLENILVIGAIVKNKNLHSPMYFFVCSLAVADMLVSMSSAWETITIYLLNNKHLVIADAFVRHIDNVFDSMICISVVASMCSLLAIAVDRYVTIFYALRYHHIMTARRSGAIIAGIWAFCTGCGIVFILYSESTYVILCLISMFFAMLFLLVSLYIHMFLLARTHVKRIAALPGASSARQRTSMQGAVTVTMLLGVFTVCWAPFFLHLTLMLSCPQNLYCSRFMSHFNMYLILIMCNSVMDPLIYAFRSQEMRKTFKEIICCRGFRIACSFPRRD
In short: as §1

MRGPRX2 = biological target: T32, MRGPRX2 (Homo sapiens, UniProt Q96LB1)
T32 construct: purchased PRESTO-Tango GPCR kit (Roth lab / Addgene)
In short: as §1

GHRHR = biological target: T33, GHRHR (Homo sapiens, UniProt Q02643)
T33 construct: purchased PRESTO-Tango GPCR kit (Roth lab / Addgene)
T33 sequence (Q02643 23-423): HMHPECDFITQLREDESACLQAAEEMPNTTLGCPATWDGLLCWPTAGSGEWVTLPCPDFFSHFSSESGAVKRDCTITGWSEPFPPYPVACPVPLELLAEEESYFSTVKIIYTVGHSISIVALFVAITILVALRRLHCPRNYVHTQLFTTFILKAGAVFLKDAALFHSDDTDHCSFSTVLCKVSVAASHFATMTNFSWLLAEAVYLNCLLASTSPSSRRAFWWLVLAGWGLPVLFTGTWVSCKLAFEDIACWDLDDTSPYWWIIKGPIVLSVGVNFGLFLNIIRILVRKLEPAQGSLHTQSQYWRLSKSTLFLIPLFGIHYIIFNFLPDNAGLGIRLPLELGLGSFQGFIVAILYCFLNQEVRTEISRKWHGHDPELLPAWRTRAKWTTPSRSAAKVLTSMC
In short: as §1

LPAR2 = biological target: T34, LPAR2 (Homo sapiens, UniProt Q9HBW0)
T34 construct: purchased PRESTO-Tango GPCR kit (Roth lab / Addgene)
T34 sequence (Q9HBW0 whole entry): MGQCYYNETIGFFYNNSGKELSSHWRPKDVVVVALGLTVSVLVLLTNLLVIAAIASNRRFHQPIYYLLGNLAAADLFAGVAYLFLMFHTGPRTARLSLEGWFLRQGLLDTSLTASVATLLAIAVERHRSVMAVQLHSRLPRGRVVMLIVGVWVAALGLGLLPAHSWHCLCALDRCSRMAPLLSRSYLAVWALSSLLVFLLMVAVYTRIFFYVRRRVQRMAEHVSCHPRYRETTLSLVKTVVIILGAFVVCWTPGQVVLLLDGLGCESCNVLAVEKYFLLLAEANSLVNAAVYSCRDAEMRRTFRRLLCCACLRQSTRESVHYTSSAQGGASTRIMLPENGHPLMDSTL
In short: as §1

DRD5 = biological target: T35, DRD5 (Homo sapiens, UniProt P21918)
T35 construct: purchased PRESTO-Tango GPCR kit (Roth lab / Addgene)
T35 sequence (P21918 whole entry): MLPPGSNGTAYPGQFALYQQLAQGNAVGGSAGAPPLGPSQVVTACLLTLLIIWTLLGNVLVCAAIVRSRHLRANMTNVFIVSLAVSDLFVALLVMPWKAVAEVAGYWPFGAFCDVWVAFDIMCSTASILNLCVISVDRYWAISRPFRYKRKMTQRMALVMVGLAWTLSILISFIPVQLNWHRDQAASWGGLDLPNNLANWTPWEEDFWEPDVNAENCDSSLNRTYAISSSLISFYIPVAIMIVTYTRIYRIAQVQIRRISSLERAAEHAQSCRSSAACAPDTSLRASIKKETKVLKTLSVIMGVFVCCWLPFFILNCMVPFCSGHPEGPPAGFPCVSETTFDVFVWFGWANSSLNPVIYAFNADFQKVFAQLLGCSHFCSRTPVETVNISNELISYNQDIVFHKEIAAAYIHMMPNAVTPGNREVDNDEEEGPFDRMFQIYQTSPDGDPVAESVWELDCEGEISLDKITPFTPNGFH
In short: as §1

BB3 = biological target: T36, BB3 (Homo sapiens, UniProt P32247)
T36 construct: purchased PRESTO-Tango GPCR kit (Roth lab / Addgene)
In short: as §1

T1 sequence (O95136 whole entry): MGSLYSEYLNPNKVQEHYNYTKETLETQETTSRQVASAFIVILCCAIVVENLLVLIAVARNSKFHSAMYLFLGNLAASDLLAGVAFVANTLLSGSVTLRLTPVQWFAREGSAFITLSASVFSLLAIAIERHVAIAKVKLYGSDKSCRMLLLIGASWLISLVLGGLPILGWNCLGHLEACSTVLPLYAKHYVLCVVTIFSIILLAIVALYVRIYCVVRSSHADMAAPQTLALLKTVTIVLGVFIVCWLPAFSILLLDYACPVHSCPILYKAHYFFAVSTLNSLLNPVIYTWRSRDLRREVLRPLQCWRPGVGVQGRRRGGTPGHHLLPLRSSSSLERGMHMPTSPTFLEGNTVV

SMILES | GPCR activation (heatmap value) (S1PR2) | GPCR activation (heatmap value) (GPR6) | GPCR activation (heatmap value) (HTR1A) | GPCR activation (heatmap value) (GPR124) | GPCR activation (heatmap value) (CCKBR) | GPCR activation (heatmap value) (CCR2) | GPCR activation (heatmap value) (P2RY1) | GPCR activation (heatmap value) (GPR114) | GPCR activation (heatmap value) (NTSR1) | GPCR activation (heatmap value) (LPAR1) | GPCR activation (heatmap value) (TAAR6) | GPCR activation (heatmap value) (CXCR6) | GPCR activation (heatmap value) (GNRHR) | GPCR activation (heatmap value) (GPR44) | GPCR activation (heatmap value) (MLNR) | GPCR activation (heatmap value) (SSTR2) | GPCR activation (heatmap value) (CALCRL) | GPCR activation (heatmap value) (GPR87) | GPCR activation (heatmap value) (GABBR1) | GPCR activation (heatmap value) (SSTR1) | also measured
CC(C)Cc1ncc(CCCNC(=N)N)[nH]c1=O [compound 3] | 0.5246 | -1.168 | -0.02258 | 0.8185 | 0.2979 | 0.059 | 0.6628 | 0.003235 | -0.1053 | -0.4869 | 0.2505 | 0.09324 | 0.3051 | 0.23 | -1.345 | -0.806 | -0.1816 | -0.4548 | 0.7353 | 0.2369 | GPCR activation (heatmap value) (ADRA2A): 0.08001; GPCR activation (heatmap value) (PRRP): 1.542; GPCR activation (heatmap value) (GPR123): -0.4576; GPCR activation (heatmap value) (GPR62): 1.991; GPCR activation (heatmap value) (DRD1): 0.8634; GPCR activation (heatmap value) (GRM8): -0.7817; GPCR activation (heatmap value) (CHRM2): 0.33; GPCR activation (heatmap value) (LPAR5): 0.04943; GPCR activation (heatmap value) (GPR146): -0.2269; GPCR activation (heatmap value) (MC1R): -1.487; GPCR activation (heatmap value) (MC5R): -0.2243; GPCR activation (heatmap value) (MRGPRX2): 0.1651; GPCR activation (heatmap value) (GHRHR): 0.3749; GPCR activation (heatmap value) (LPAR2): -0.4851; GPCR activation (heatmap value) (DRD5): 1.05; GPCR activation (heatmap value) (BB3): 0.3176
CC(C)Cc1ncc(CCCCNC(=N)N)[nH]c1=O [3-Homo] | -0.09813 | 0.1759 | -0.3927 | -0.5918 | 0.2356 | -0.2415 | 0.7917 | 0.07141 | 0.1673 | -0.9265 | 0.5054 | 1.014 | -0.5775 | 0.02511 | -0.3794 | 0.327 | 1.281 | -0.5192 | -1.048 | -0.2346 | GPCR activation (heatmap value) (ADRA2A): -0.8336; GPCR activation (heatmap value) (PRRP): 1.001; GPCR activation (heatmap value) (GPR123): -0.1319; GPCR activation (heatmap value) (GPR62): 0.1938; GPCR activation (heatmap value) (DRD1): 0.1434; GPCR activation (heatmap value) (GRM8): 0.556; GPCR activation (heatmap value) (CHRM2): 0.1441; GPCR activation (heatmap value) (LPAR5): 0.1689; GPCR activation (heatmap value) (GPR146): -0.8234; GPCR activation (heatmap value) (MC1R): -0.8565; GPCR activation (heatmap value) (MC5R): 0.4155; GPCR activation (heatmap value) (MRGPRX2): -0.6668; GPCR activation (heatmap value) (GHRHR): 0.5021; GPCR activation (heatmap value) (LPAR2): 0.05246; GPCR activation (heatmap value) (DRD5): -0.03134; GPCR activation (heatmap value) (BB3): -0.2556

Reference: article PMC11480411, “Mucosal sugars delineate pyrazine vs pyrazinone autoinducer signaling in Klebsiella oxytoca” (Nature Communications, 2024)
